For 28 compounds, IC50 results are on record in patent US10654816B2, “Compounds and compositions for treating conditions associated with NLRP activity” (NOVARTIS INFLAMMASOME RESEARCH, INC., priority 2017, dated 2020).

Usually IC50 stands for the midpoint of a concentration-inhibition curve.

Molecules are shown by their SMILES. Read-outs that look alike come from different tables or passages of the source.

The experiment concerns IL-1β production in PMA-differentiated THP-1 cells. Briefly: IL-1β production in PMA-differentiated THP-1 cells stimulated with gramicidin (hTHP-1 assay, HTRF readout; Procedures 1-3). Type of experiment: cell-based, human. The note with it: Homo sapiens, THP-1, hTHP-1 assay containing 2% fetal bovine serum, average, read-out: hTHP-1 IC50 (Average IC50 of compounds in hTHP-1 assay). The method, boiled down:
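PMA-differentiated (20 ng/ml, 16-18 h) THP-1 cells in RPMI with 2% FBS, 50,000 cells/well, preincubated 1 h with compound (final 0.0017-100 μM, 0.37% DMSO), then stimulated with 5 μM gramicidin for 2 h. IL-1β in cell-free supernatant measured by HTRF (620/668 nm).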
Background: In TR-FRET formats the signal depends on donor and acceptor labels being close together.

As for `CC(C)(O)c1cnc(S(N)(=O)=NC(=O)Nc2c3c(cc4c2CCO4)CCC3)s1` (stereo not shown) [Example 257, 5-(2-hydroxypropan-2-yl)-N′-((3,5,6,7-tetrahydro-2H-indeno[5,6-b]furan-4-yl)carbamoyl)thiazole-2-sulfonimidamide], for the setting “class symbols”, the IC50 was in the range of 40 to 200 nM. Consider `CC(C)(O)c1cc(S(N)(=O)=NC(=O)Nc2c3c(cc4c2CCC4)CCC3)nn1-c1ccccc1` (stereo not shown) [Example 259, N′-((1,2,3,5,6,7-hexahydro-s-indacen-4-yl)carbamoyl)-5-(2-hydroxypropan-2-yl)-1-phenyl-1H-pyrazole-3-sulfonimidamide], for which the IC50 (class symbols) lay in the range of 200 to 1000 nM. Still for that read-out and setting: the result for `CC(C)(O)c1ccc(S(N)(=O)=NC(=O)Nc2c3c(cc4c2CCC4)CCC3)cn1` (stereo not shown) [Example 260, N′-((1,2,3,5,6,7-hexahydro-s-indacen-4-yl)carbamoyl)-6-(2-hydroxypropan-2-yl)pyridine-3-sulfonimidamide] reads 200 to 1000 nM; that for `C#CCCC(=O)N(C)Cc1ccc(S(N)(=O)=NC(=O)Nc2c3c(cc4c2CCC4)CCC3)cc1` (stereo not shown) [Example 261, N-(4-(N′-((1,2,3,5,6,7-hexahydro-s-indacen-4-yl)carbamoyl)sulfamidimidoyl)benzyl)-N-methylpent-4-ynamide], 1000 to 5000 nM; that for `CC(C)(O)c1csc(S(N)(=O)=NC(=O)Nc2c3c(cc4c2CC4)CCC3)n1` (stereo not shown) [Example 262, 4-(2-Hydroxypropan-2-yl)-N′-((2,4,5,6-tetrahydro-1H-cyclobuta[f]inden-3-yl)carbamoyl)thiazole-2-sulfonimidamide], 8 to 40 nM. Still for that read-out and setting: then `Cc1nc(C(C)(C)O)ccc1S(N)(=O)=NC(=O)Nc1c2c(cc3c1CCC3)CCC2` (stereo not shown) [Example 264, N′-((1,2,3,5,6,7-hexahydro-s-indacen-4-yl)carbamoyl)-6-(2-hydroxypropan-2-yl)-2-methylpyridine-3-sulfonimidamide], with 1000 to 5000 nM.

For `Cc1sc(S(N)(=O)=NC(=O)Nc2c3c(cc4c2CCC4)CCC3)nc1C(C)(C)O` (stereo not shown) [Example 265, N′-(1,2,3,5,6,7-hexahydro-s-indacen-4-ylcarbamoyl)-4-(2-hydroxypropan-2-yl)-5-methylthiazole-2-sulfonimidamide], under “class symbols”, the IC50 was 40 to 200 nM. The same measure, in the same setting: the result for `CC(=O)N(C)Cc1ccc(S(N)(=O)=NC(=O)Nc2c3c(cc4c2CCC4)CCC3)cc1` (stereo not shown) [Example 268, N-(4-(N′-(1,2,3,5,6,7-hexahydro-s-indacen-4-ylcarbamoyl)sulfamimidoyl)benzyl)-N-methylacetamide] reads 1000 to 5000 nM. For `CN1CCc2cc(S(N)(=O)=NC(=O)Nc3c4c(cc5c3CCC5)CCC4)ccc2C1` (stereo not shown) [Example 270, N′-((1,2,3,5,6,7-hexahydro-s-indacen-4-yl)carbamoyl)-2-methyl-1,2,3,4-tetrahydroisoquinoline-6-sulfonimidamide], under “class symbols”, the IC50 was in the range of 1000 to 5000 nM.

In the case of `CN1CCc2ccc(S(=N)(=O)NC(=O)Nc3c4c(cc5c3CCC5)CCC4)cc2C1` (stereo not shown) [Example 271, N-(1,2,3,5,6,7-hexahydro-s-indacen-4-ylcarbamoyl)-2-methyl-1,2,3,4-tetrahydroisoquinoline-7-sulfonimidamide], the IC50 (class symbols) lay in the range of 1000 to 5000 nM. On the same count and under the same terms, then `COc1cc(CN(C)C)ccc1S(N)(=O)=NC(=O)Nc1c2c(cc3c1CCC3)CCC2` (stereo not shown) [Example 272, 4-((Dimethylamino)methyl)-N′-((1,2,3,5,6,7-hexahydro-s-indacen-4-yl)carbamoyl)-2-methoxybenzenesulfonimidamide], with 200 to 1000 nM; and `Cn1ncc2cc(S(N)(=O)=NC(=O)Nc3c4c(cc5c3CCC5)CCC4)ccc21` (stereo not shown) [Example 273, N′-(1,2,3,5,6,7-hexahydro-s-indacen-4-ylcarbamoyl)-1-methyl-1H-indazole-5-sulfonimidamide], with 5000 to 30000 nM. Same read-out and setting: the result for `CC(C)Cc1ccc(S(N)(=O)=NC(=O)Nc2c3c(cc4c2CCC4)CCC3)cn1` (stereo not shown) [Example 275, N′-(1,2,3,5,6,7-hexahydro-s-indacen-4-ylcarbamoyl)-6-isobutylpyridine-3-sulfonimidamide] reads 1000 to 5000 nM. The same measure, in the same setting: then `CN(C)Cc1ccc(S(N)(=O)=NC(=O)Nc2c3c(cc4c2CCC4)CCC3)cn1` (stereo not shown) [Example 276, 6-((Dimethylamino)methyl)-N′-(1,2,3,5,6,7-hexahydro-s-indacen-4-ylcarbamoyl)pyridine-3-sulfonimidamide], with 200 to 1000 nM. In the case of `CC(C)Cc1ccc(S(N)(=O)=NC(=O)Nc2c3c(cc4c2CCC4)CCC3)cc1` (stereo not shown) [Example 277, N′-(1,2,3,5,6,7-hexahydro-s-indacen-4-ylcarbamoyl)-4-isobutylbenzenesulfonimidamide], the IC50 (given as bound) was above 30000 nM. Take `CN(C)Cc1ccc(S(N)(=O)=NC(=O)Nc2c3c(cc4c2CCC4)CCC3)cc1F` (stereo not shown) [Example 280, 4-((dimethylamino)methyl)-3-fluoro-N′-((1,2,3,5,6,7-hexahydro-s-indacen-4-yl)carbamoyl)benzenesulfonimidamide]: the IC50 (class symbols) lay within 200 to 1000 nM. Same read-out and setting: then `CC(C)(O)c1cc(F)c(S(N)(=O)=NC(=O)Nc2c3c(cc4c2CC4)CCC3)s1` (stereo not shown) [Example 281, 3-fluoro-5-(2-hydroxypropan-2-yl)-N′-((2,4,5,6-tetrahydro-1H-cyclobuta[f]inden-3-yl)carbamoyl)thiophene-2-sulfonimidamide], with 8 to 40 nM; and `CC(C)c1csc(S(N)(=O)=NC(=O)Nc2c3c(cc4c2CCC4)CCC3)c1` (stereo not shown) [Example 282, N′-((1,2,3,5,6,7-hexahydro-s-indacen-4-yl)carbamoyl)-4-isopropylthiophene-2-sulfonimidamide], with […]; and `CC(C)c1nn(-c2ccccc2)c(C(C)C)c1NC(=O)N=S(N)(=O)c1cc(C(C)(C)O)cs1` (stereo not shown) [Example 284, N′-((3,5-diisopropyl-1-phenyl-1H-pyrazol-4-yl)carbamoyl)-4-(2-hydroxypropan-2-yl)thiophene-2-sulfonimidamide], with 5000 to 30000 nM. Take `CNCc1ccc(S(N)(=O)=NC(=O)Nc2c3c(cc4c2CCC4)CCC3)c(F)c1` (stereo not shown) [Example 287, 2-fluoro-N′-((1,2,3,5,6,7-hexahydro-s-indacen-4-yl)carbamoyl)-4-((methylamino)methyl)benzene-sulfonimidamide]: the IC50 (class symbols) fell in the range of 1000 to 5000 nM. Still for that read-out and setting: the result for `CC(C)c1ccc(S(N)(=O)=NC(=O)Nc2c3c(cc4c2CCC4)CCC3)cn1` (stereo not shown) [Example 288, N′-((1,2,3,5,6,7-hexahydro-s-indacen-4-yl)carbamoyl)-6-isopropylpyridine-3-sulfonimidamide] reads 1000 to 5000 nM; that for `CCc1ccc2cn[nH]c2c1NC(=O)N=S(N)(=O)c1cnc(C(C)(C)O)s1` (stereo not shown) [Example 290, N′-((6-ethyl-1H-indazol-7-yl)carbamoyl)-2-(2-hydroxypropan-2-yl)thiazole-5-sulfonimidamide], 1000 to 5000 nM.

Turning to `Cc1ccc(-c2ccc(NC(=O)N=S(N)(=O)c3ncc(C(C)(C)O)s3)c3c2CCC3)cc1C` (stereo not shown) [Example 426, 1-{Amino[5-(2-hydroxypropan-2-yl)-1,3-thiazol-2-yl]oxo-λ^6-sulfanylidene}-3-[7-(3,4-dimethylphenyl)-2,3-dihydro-1H-inden-4-yl]urea], the half-inhibitory concentration (IC50) (class symbols) was in the range of 5000 to 30000 nM. Same read-out and setting: then `Cc1ccc(-c2c3c(c(NC(=O)N=S(N)(=O)c4ncc(C(C)(C)O)s4)c4c2CCC4)CCC3)cc1C` (stereo not shown) [Example 427, 1-{Amino[5-(2-hydroxypropan-2-yl)-1,3-thiazol-2-yl]oxo-λ^6-sulfanylidene}-3-[8-(3,4-dimethylphenyl)-1,2,3,5,6,7-hexahydro-s-indacen-4-yl]urea], with 5000 to 30000 nM; and `Cc1nc(C)c(S(N)(=O)=NC(=O)Nc2c(C(C)C)cc(F)cc2C(C)C)s1` (stereo not shown) [Example 428, 3-[amino(dimethyl-1,3-thiazol-5-yl)oxo-λ^6-sulfanylidene]-1-[4-fluoro-2,6-bis(propan-2-yl)phenyl]urea], with 5000 to 30000 nM. As to `CC(C)c1cc(F)cc(C(C)C)c1NC(=O)N=S(N)(=O)c1cnc2c(cnn2C)c1` (stereo not shown) [Example 430, 3-[amino({1-methyl-1H-pyrazolo[3,4-b]pyridin-5-yl})oxo-λ^6-sulfanylidene]-1-[4-fluoro-2,6-bis(propan-2-yl)phenyl]urea], the IC50 (class symbols) lay within 5000 to 30000 nM. As for `CC(C)c1cc(F)cc(C(C)C)c1NC(=O)N=S(N)(=O)c1cccc2c(N(C)C)cccc12` (stereo not shown) [Example 431, 1-{amino[5-(dimethylamino)naphthalen-1-yl]oxo-λ^6-sulfanylidene}-3-[4-fluoro-2,6-bis(propan-2-yl)phenyl]urea], the IC50 (class symbols) was 5000 to 30000 nM. For the compound `Cc1cc(NC(=O)N=S(N)(=O)c2ccc(C(C)(C)O)s2)cc(C)n1` (stereo not shown) [compound 78, N-((2,6-dimethylpyridin-4-yl)carbamoyl)-5-(2-hydroxypropan-2-yl)thiophene-2-sulfonimidamide], the IC50 (given as bound) is above 30000 nM.
